What is called IC50 is the concentration that gives 50% inhibition. A high value points to weaker potency in that assay.

The target of experiment [1] is muscarinic receptors. Nature of the experiment: Radioligand binding: displacement of muscarinic agonist 3H-Oxotremorine-M (3H-OXO-M), rat cerebral cortex. Details: species or system Hooded Lister rats. As to conditions: displacement of 2 nM 3H-OXO-M, 2 mM magnesium chloride, 37° C., 30 min.
Experiment [2] has as its target muscarinic receptors. The format is binding, Hooded Lister rats. The conditions noted are these: displacement of 0.27 nM 3H-QNB, rat cerebral cortex, 37° C., 30 min.

Read-outs that look alike come from different tables or passages of the source.

As for `Cn1ncc(C23CCCN(CC2)C3)n1` (racemic) [Example E1, (±) 5-(2-Methyl-1,2,3-triazol-4-yl)-1-azabicyclo-[3.2.1]octane], the IC50 in experiment [1] turned out to be 14.2 nM; in experiment [2], 3000 nM.

On to `Cn1nnc(C2CN3CCC2CC3)n1` (racemic) [Example E2, (±) 3-(2-Methyltetrazol-5-yl)-1-azabicyclo[2.2.2]octane], for which the results for the IC50 in experiment [1] and in experiment [2] were 230 nM and 5700 nM, respectively.

As for `Cn1nnc(C23CCCN(CC2)C3)n1` (racemic) [Example E3, (±) 5-(2-Methyltetrazol-5-yl)-1-azabicyclo[3.2.1]octane], the concentration for half-maximal inhibition (IC50) came to 100 nM in experiment [1] and 8200 nM in experiment [2].

Take `CCn1nnc(C2CN3CCC2CC3)n1` (racemic) [Example E9, (±) 3-(2-Ethyltetrazol-5-yl)-1-azabicyclo[2.2.2]octane]: the values for the IC50 in experiment [1] and in experiment [2] were 1000 nM and 8300 nM, respectively.

Take `Cn1ncc(C2CN3CCC2CC3)n1` (racemic) [Example E11]: the figures for the IC50 in experiment [1] and in experiment [2] were 56 nM and 6550 nM, respectively.

Regarding `Cn1nncc1C1CN2CCC1CC2` (racemic) [Example E13], the IC50 in experiment [1] came out at 750 nM; in experiment [2], 38000 nM.

`Cn1nnc([C@@H]2CN3CC[C@@H]2C3)n1` (relative stereo) [Example E4, (±) exo-3-(2-Methyltetrazol-5-yl)-1-azabicyclo-[2.2.1]heptane]: the IC50 in experiment [1] was 11.5 nM; in experiment [2], 3700 nM.

For the molecule `Cn1nnnc1[C@@H]1CN2CC[C@@H]1C2` (relative stereo) [Example E5, (±) exo-3-(1-Methyltetrazol-5-yl)-1-azabicyclo-[2.2.1]heptane], the IC50 in experiment [1] worked out at 349 nM; in experiment [2], 95000 nM.

In the case of `Cn1nnc([C@H]2CN3CC[C@@H]2C3)n1` (relative stereo) [Example E6, (±) endo-3-(2-Methyltetrazol-5-yl)-1-azabicyclo-[2.2.1]heptane], the IC50 in experiment [1] was found to be 324 nM; in experiment [2] it was 40000 nM.

With `Cn1ncc([C@@H]2CN3CC[C@@H]2C3)n1` (relative stereo) [Example E14, (±) exo-3-(2-Methyl-1,2,3-triazol-4-y1)-1-azabicyclo 2.2.1]heptane], the IC50 in experiment [1] was determined as 5.6 nM; in experiment [2], 5700 nM.

As for `Cn1ncc([C@H]2CN3CC[C@@H]2C3)n1` (relative stereo) [Example E15, (±) endo-3-(2-Methyl-1,2,3-triazol-4-yl)-1-azabicyclo [2.2.1]heptane], the IC50 in experiment [1] was determined as 10.5 nM; in experiment [2], 18500 nM.

`CCn1nnc([C@@H]2CN3CC[C@@H]2C3)n1` (relative stereo) [Example E18, (±) exo-3-(2-Ethyltetrazol-5-yl)-1-azabicyclo[2.2.1]heptane]: the IC50 in experiment [1] was 400 nM; in experiment [2], 5500 nM.

With `CCn1ncc([C@@H]2CN3CC[C@@H]2C3)n1` (relative stereo) [Example E19, (±) exo-3-(2-Ethyl-1.2.3-triazol-4-yl)-1-azabicyclo [2.2.1]heptane], the IC50 in experiment [1] came to 540 nM; in experiment [2], 2200 nM.

Regarding `Cn1nnc(C23CCN(CC2)C3)n1` [Example E8, 4-(2-Methyltetrazol-5-yl)-1-azabicyclo2.2.11 heptane], the IC50 in experiment [1] was 250 nM; in experiment [2], 56000 nM.

For the molecule `Cn1ncc(C23CCN(CC2)C3)n1` [Example E10, 4-(2-Methyl-1,2,3-triazol-4-yl)-1-azabicyclo[2.2.1]-heptane], the results for the IC50 in experiment [1] and in experiment [2] were 32 nM and 20000 nM, respectively.

For the molecule `CCn1ncc(C23CCN(CC2)C3)n1` [Example E16], the values for the IC50 in experiment [1] and in experiment [2] were 440 nM and 15800 nM, respectively.

(Values after patent US5217975A (priority 1989, dated 1993).)
